# Laboratory results taken from patent US10406146B2, “Heterocyclic compound” (TAKEDA PHARMACEUTICAL COMPANY LIMITED, priority 2015, dated 2019).
# Columns and labels:
# Format in all cases: biochemical
# HDAC9 enzyme = biological target: T1, HDAC9 enzyme (Homo sapiens, UniProt Q9UKV0); assay: HDAC9 enzyme inhibitory assay (HDAC-Glo class IIa); conditions: wells without enzyme = 100% inhibition; for inhibition at 1 µM: read-out: HDAC9 inhibitory rate (%) (1 μM)
# T1 construct: transducing full length HDAC9 gene into Sf-9 insect cells; made in house; host or cells: Sf-9 insect cells
# Experimental: HDAC9 Enzyme Inhibitory Assay
# Enzyme was prepared by transducing full length HDAC9 gene into Sf-9 insect cells and purifying by Ni-NTA affinity column, and HDAC9 enzyme inhibitory activity was evaluated. Enzymes were used after preserved at −70° C. HDAC9 enzyme inhibitory activity of the test compound was measured using HDAC-Glo class IIa (Promega) according to the following experimental method. The test compound diluted with assay buffer (24 mM Tris-HCl (pH 7.5), 1 mM MgCl2, 0.35 mM KCl, 135 mM NaCl, 0.6 mM Glutathione, 0.01% Tween-20) was added to a 384-well plate by each 2 μL. Then, HDAC9 enzyme solution diluted with assay buffer was added thereto by each 2 μL, and the plate was incubated at room temperature for 60 min. After incubated, HDAC substrate-Developer solution prepared according to Promega protocol was added to the 384-well plate by each 4 μL, and the enzyme reaction was started. After reacting at room temperature for 20 min, luminescence level was measured using plate reader Envision (PerkinElmer). The inhibitory activity of each compound was calculated as a relative activity value when luminescence level in wells without enzyme is considered as 100% inhibition.
# HDAC1 enzyme = biological target: T2, HDAC1 enzyme (Homo sapiens, UniProt Q13547); assay: HDAC1 enzyme inhibitory assay (HDAC-Glo I/II Assay kit); conditions: wells without enzyme = 100% inhibition; for inhibition at 1 µM: read-out: HDAC1 inhibitory rate (%) (1 μM)
# T2 construct: transducing full length HDAC1 and HDAC6 genes into Sf-9 insect cells; GST; purchased SignalChem; host or cells: Sf-9 insect cells
# Experimental: (§1) HDAC1/6 Enzyme Inhibitory Assay
# (§2) HDAC1 enzyme and HDAC6 enzyme each prepared by transducing full length HDAC1 and HDAC6 genes into Sf-9 insect cells and purifying by GST affinity column were purchased from SignalChem. Using these enzymes, HDAC1 and/or HDAC6 enzyme inhibitory activities of the compound of the present invention were evaluated. Enzymes were used after preserved at −70° C. HDAC1 or HDAC6 enzyme inhibitory activity of the compound of the present invention was measured using HDAC-Glo™ I/II Assay kit (Promega) according to the following experimental method. The test compound diluted with assay buffer (24 mM Tris-HCl (pH 7.5), 1 mM MgCl2, 0.35 mM KCl, 135 mM NaCl, 0.6 mM Glutathione, 0.01% Tween-20) was added to a 384-well plate by each 2 μL. Then, HDAC1 or HDAC6 enzyme solution diluted with assay buffer was added thereto by each 4 μL, and the plate was incubated at room temperature for 60 min. After incubated, HDAC substrate-Developer solution prepared according to Promega protocol attached to the assay kit was added to the 384-well plate by each 2 μL, and the enzyme reaction was started. After reacting at room temperature for 20 min, luminescence level was measured using plate reader Envision (PerkinElmer). The inhibitory activity of each compound was calculated as a relative activity value when luminescence level in wells without enzyme is considered as 100% inhibition.
# HDAC6 enzyme = biological target: T3, HDAC6 enzyme (Homo sapiens, UniProt Q9UBN7); assay: HDAC6 enzyme inhibitory assay (HDAC-Glo I/II Assay kit); conditions: wells without enzyme = 100% inhibition; for inhibition at 1 µM: read-out: HDAC6 inhibitory rate (%) (1 μM)
# T3 construct: transducing full length HDAC1 and HDAC6 genes into Sf-9 insect cells; GST; purchased SignalChem; host or cells: Sf-9 insect cells
# T3 sequence (Q9UBN7 1-1215): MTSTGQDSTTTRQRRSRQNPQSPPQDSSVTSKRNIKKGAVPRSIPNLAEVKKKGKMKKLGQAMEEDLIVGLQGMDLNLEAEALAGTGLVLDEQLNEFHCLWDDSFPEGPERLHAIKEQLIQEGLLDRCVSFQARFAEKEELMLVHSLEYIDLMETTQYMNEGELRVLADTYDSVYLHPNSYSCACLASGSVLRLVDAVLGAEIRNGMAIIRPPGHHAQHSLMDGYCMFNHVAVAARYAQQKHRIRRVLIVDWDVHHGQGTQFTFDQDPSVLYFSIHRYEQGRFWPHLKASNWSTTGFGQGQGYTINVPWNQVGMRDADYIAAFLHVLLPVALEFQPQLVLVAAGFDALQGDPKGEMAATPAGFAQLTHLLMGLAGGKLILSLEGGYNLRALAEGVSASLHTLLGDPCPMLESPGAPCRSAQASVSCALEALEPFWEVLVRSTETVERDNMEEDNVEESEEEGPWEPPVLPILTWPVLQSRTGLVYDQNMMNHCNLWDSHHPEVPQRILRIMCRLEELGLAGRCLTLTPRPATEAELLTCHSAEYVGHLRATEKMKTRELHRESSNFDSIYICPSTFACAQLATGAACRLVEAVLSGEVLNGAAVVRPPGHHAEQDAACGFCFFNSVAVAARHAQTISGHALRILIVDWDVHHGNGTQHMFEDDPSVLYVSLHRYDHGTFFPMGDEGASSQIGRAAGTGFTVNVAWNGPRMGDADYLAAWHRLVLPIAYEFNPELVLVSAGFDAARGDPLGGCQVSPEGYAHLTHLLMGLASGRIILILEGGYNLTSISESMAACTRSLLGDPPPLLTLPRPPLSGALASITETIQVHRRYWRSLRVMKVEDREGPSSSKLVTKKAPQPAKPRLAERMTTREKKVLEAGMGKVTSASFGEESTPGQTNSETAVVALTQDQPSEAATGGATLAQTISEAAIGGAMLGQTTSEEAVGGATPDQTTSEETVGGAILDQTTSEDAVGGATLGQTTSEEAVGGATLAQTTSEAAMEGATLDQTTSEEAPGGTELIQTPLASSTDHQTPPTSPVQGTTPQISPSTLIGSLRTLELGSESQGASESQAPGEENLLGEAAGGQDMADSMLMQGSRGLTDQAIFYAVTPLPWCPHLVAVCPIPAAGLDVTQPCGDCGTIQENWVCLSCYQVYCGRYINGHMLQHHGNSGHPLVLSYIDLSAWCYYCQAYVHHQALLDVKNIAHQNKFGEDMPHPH
# Experimental: as §1, §2
# T2 sequence (Q13547 whole entry): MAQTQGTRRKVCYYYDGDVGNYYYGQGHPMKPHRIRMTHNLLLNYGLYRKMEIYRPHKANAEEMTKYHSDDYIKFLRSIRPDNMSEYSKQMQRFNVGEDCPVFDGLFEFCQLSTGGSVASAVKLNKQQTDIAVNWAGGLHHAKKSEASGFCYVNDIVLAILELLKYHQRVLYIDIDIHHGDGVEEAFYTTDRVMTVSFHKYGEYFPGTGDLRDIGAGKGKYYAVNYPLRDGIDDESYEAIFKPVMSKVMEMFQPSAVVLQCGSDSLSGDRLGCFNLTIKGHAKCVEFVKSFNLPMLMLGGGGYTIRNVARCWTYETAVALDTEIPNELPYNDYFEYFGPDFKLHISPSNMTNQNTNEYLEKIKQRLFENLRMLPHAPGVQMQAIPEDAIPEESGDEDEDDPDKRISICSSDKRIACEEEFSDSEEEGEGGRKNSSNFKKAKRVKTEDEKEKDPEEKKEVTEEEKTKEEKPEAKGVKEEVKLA
# T1 sequence (Q9UKV0 whole entry, species assumed): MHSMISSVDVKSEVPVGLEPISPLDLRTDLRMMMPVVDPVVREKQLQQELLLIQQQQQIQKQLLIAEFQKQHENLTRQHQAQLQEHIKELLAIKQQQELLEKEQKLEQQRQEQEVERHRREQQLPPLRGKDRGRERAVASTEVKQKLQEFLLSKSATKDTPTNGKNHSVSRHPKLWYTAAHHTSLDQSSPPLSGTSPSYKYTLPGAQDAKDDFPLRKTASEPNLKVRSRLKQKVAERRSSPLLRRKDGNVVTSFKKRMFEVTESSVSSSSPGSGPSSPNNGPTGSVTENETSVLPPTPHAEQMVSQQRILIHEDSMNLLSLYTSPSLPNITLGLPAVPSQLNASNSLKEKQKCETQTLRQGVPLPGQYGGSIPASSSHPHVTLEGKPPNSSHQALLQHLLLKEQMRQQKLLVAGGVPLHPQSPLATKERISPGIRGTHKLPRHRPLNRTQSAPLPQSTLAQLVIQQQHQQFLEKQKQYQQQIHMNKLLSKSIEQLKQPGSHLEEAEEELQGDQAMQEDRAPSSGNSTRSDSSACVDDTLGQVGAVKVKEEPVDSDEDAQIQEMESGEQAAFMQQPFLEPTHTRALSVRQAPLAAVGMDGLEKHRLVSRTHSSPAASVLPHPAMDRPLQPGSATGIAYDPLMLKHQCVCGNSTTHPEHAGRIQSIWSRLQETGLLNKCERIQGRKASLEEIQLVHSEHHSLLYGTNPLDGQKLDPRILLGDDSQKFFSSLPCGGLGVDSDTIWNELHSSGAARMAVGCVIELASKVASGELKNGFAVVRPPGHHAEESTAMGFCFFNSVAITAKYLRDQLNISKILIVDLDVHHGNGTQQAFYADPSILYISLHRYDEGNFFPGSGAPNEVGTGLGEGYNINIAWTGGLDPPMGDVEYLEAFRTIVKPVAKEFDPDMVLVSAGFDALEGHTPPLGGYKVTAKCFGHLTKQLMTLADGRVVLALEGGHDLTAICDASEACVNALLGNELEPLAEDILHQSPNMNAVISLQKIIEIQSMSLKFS
Compound,inhibition at 1 µM (HDAC9 enzyme) [%],inhibition at 1 µM (HDAC1 enzyme) [%],inhibition at 1 µM (HDAC6 enzyme) [%],HDAC9 inhibitory rate (%) (1 μM) (HDAC9 enzyme),HDAC1 inhibitory rate (%) (1 μM) (HDAC1 enzyme),HDAC6 inhibitory rate (%) (1 μM) (HDAC6 enzyme)
"O=C(NCC1CCCCN1C(=O)Nc1ccc(-c2noc(C(F)(F)F)n2)cc1)c1ccccc1C(F)(F)F (stereo not drawn) [Example 16, 2-(((2-(trifluoromethyl)benzoyl)amino)methyl)-N-(4-(5-(trifluoromethyl)-1,2,4-oxadiazol-3-yl)phenyl)piperidine-1-carboxamide]",57,-2,1,–,–,–
"CN1CCC(C(=O)NCC2CCCCN2C(=O)Nc2ccc(-c3noc(C(F)(F)F)n3)cc2)CC1 (stereo not drawn) [Example 52, 2-((((1-methylpiperidin-4-yl)carbonyl)amino)methyl)-N-(4-(5-(trifluoromethyl)-1,2,4-oxadiazol-3-yl)phenyl)piperidine-1-carboxamide]",80,27,6,–,–,–
"COc1cccc(C(=O)NCC2CCCCN2C(=O)Nc2ccc(-c3noc(C(F)(F)F)n3)cc2)c1 (stereo not drawn) [Example 24, 2-(((3-methoxybenzoyl)amino)methyl)-N-(4-(5-(trifluoromethyl)-1,2,4-oxadiazol-3-yl)phenyl)piperidine-1-carboxamide]",88,24,3,–,–,–
"O=C(NCC1CCCCN1C(=O)Nc1ccc(-c2noc(C(F)(F)F)n2)cc1)c1ccccc1Cl (stereo not drawn) [Example 7, 2-(((2-chlorobenzoyl)amino)methyl)-N-(4-(5-(trifluoromethyl)-1,2,4-oxadiazol-3-yl)phenyl)piperidine-1-carboxamide]",52,-3,3,–,–,–
"Cc1ccccc1C(=O)NCC1CCCCN1C(=O)Nc1ccc(-c2noc(C(F)(F)F)n2)cc1 (stereo not drawn) [Example 10, 2-(((2-methylbenzoyl)amino)methyl)-N-(4-(5-(trifluoromethyl)-1,2,4-oxadiazol-3-yl)phenyl)piperidine-1-carboxamide]",84,4,5,–,–,–
"Cc1cccc(C(=O)NCC2CCCCN2C(=O)Nc2ccc(-c3noc(C(F)(F)F)n3)cc2)n1 (stereo not drawn) [Example 55, 6-methyl-N-((1-((4-(5-(trifluoromethyl)-1,2,4-oxadiazol-3-yl)phenyl)carbamoyl)piperidin-2-yl)methyl)pyridine-2-carboxamide]",85,31,2,–,–,–
"Cn1nccc1C(=O)NCC1COCCN1C(=O)Nc1ccc(-c2noc(C(F)(F)F)n2)cc1 (stereo not drawn) [Example 61, 3-((((1-methyl-1H-pyrazol-5-yl)carbonyl)amino)methyl)-N-(4-(5-(trifluoromethyl)-1,2,4-oxadiazol-3-yl)phenyl)morpholine-4-carboxamide]",98,62,8,–,–,–
"O=C(NCC1CCCCN1C(=O)Nc1ccc(-c2noc(C(F)(F)F)n2)cc1)c1ccc(C(F)(F)F)cc1 (stereo not drawn) [Example 18, 2-(((4-(trifluoromethyl)benzoyl)amino)methyl)-N-(4-(5-(trifluoromethyl)-1,2,4-oxadiazol-3-yl)phenyl)piperidine-1-carboxamide]",39,-7,2,–,–,–
COc1ccccc1C(=O)NCC1CCCCN1C(=O)Nc1ccc(-c2noc(C(F)(F)F)n2)cc1 (stereo not drawn) [Example 23],–,–,–,86,41,4
"CC(=O)NCC1CCCCN1C(=O)Nc1ccc(-c2noc(C(F)(F)F)n2)cc1 (stereo not drawn) [Example 48, 2-(acetamidomethyl)-N-(4-(5-(trifluoromethyl)-1,2,4-oxadiazol-3-yl)phenyl)piperidine-1-carboxamide]",88,41,5,–,–,–
"O=C(NCC1CCCCN1C(=O)Nc1ccc(-c2noc(C(F)(F)F)n2)cc1)c1cccc(-c2ccccc2)c1 (stereo not drawn) [Example 14, 2-(((biphenyl-3-ylcarbonyl)amino)methyl)-N-(4-(5-(trifluoromethyl)-1,2,4-oxadiazol-3-yl)phenyl)piperidine-1-carboxamide]",51,-8,5,–,–,–
"CC(C)(C)OC(=O)NCC1CCCCN1C(=O)Nc1ccc(-c2noc(C(F)(F)F)n2)cc1 (stereo not drawn) [Example 3, tert-butyl ((1-((4-(5-(trifluoromethyl)-1,2,4-oxadiazol-3-yl)phenyl)carbamoyl)piperidin-2-yl)methyl) carbamate]",–,–,–,87,51,5
"N#Cc1ccccc1C(=O)NCC1CCCCN1C(=O)Nc1ccc(-c2noc(C(F)(F)F)n2)cc1 (stereo not drawn) [Example 19, 2-(((2-cyanobenzoyl)amino)methyl)-N-(4-(5-(trifluoromethyl)-1,2,4-oxadiazol-3-yl)phenyl)piperidine-1-carboxamide]",72,15,2,–,–,–
"O=C(NCC1CCCCN1C(=O)Nc1ccc(-c2noc(C(F)(F)F)n2)cc1)c1ccncc1 (stereo not drawn) [Example 36, N-((1-((4-(5-(trifluoromethyl)-1,2,4-oxadiazol-3-yl)phenyl)carbamoyl)piperidin-2-yl)methyl)isonicotinamide]",97,63,5,–,–,–
"O=C(NCC1CCCCN1C(=O)Nc1ccc(-c2noc(C(F)(F)F)n2)cc1)c1cccnc1 (stereo not drawn) [Example 35, N-((1-((4-(5-(trifluoromethyl)-1,2,4-oxadiazol-3-yl)phenyl)carbamoyl)piperidin-2-yl)methyl)nicotinamide]",96,58,4,–,–,–
"O=C(NCC1CCCCN1C(=O)Nc1ccc(-c2noc(C(F)(F)F)n2)cc1)c1cc(Cl)cc(Cl)c1 (stereo not drawn) [Example 33, 2-(((3,5-dichlorobenzoyl)amino)methyl)-N-(4-(5-(trifluoromethyl)-1,2,4-oxadiazol-3-yl)phenyl)piperidine-1-carboxamide]",48,-5,0,–,–,–
